Tested on: anesthetized rats with acetic acid bladder infusion (animal model of overactive bladder)
Experiment: Cystometry in anesthetized rats with acetic acid bladder infusion;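 further: Single-filling cystometrograms via bladder-dome catheter, basal values taken after 60 min saline infusion, BVC as mL infused until micturition, MP as peak intravesical pressure (mm Hg)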
Assay type: in vivo, rat
Settings: for % Bladder Volume Capacity (vs basal) ± S.E. / ED60 (CL 95%) of recovery of Bladder Volume Capacity to basal value: single drug; for % Bladder Volume Capacity (vs basal) ± S.E.: cumulative administration; for ED60 (CL 95%) of recovery of Bladder Volume Capacity to basal value: i.v., cumulative dose-response
Experimental: Female rats (225-250 g body weight) were anesthetized with urethane (1.25 g/kg s.c.) and a catheter (PE-50, 0.58 mm I.D.×0.96 mm O.D.) was inserted into the jugular vein for intravenous drug administration. A midline lower abdominal incision was made and a second PE-50 catheter was inserted into the bladder dome for bladder filling and pressure recording, and the incision was sutured.
Dosages were administered by injection in a volume of 1 ml per kg body weight.
a) Saline was continuously infused at a rate of 0.055 ml/min by mean of a peristaltic pump via the bladder-filling catheter for 60 minutes to obtain a baseline of bladder activity. Then the infusion pump was stopped and the bladder was emptied of residual fluid by capillarity via the infusion catheter. After this procedure, a single filling cystometrogram was performed in order to determine the two urodynamic parameters: bladder volume capacity (BVC) and micturition pressure (MP) (BVC and MP BASAL VALUES).
After 30 minutes of acetic acid infusion, 3 vehicle injections were made at 20 minute intervals. Then the infusion pump was stopped, the bladder was emptied and a single filling cystometrogram was recorded as reported before (BVC and MP VALUES AFTER IRRITATION).
This procedure was repeated for three times in order to follow a cumulative dose-response protocol.
BVC is defined as the volume (mL) of fluid (saline or dilute acetic acid) infused in the bladder necessary to induce detrusor contractions followed by micturition. MP is defined as the maximal intravesical pressure (mm Hg) determined by the contraction of the detrusor during micturition.
Changes in bladder capacity for each animal were expressed as “% bladder volume capacity vs. basal (saline infusion)” and an increase in this index was used as measure of efficacy (recovery from irritation to basal value).

Compound	% Bladder Volume Capacity (vs basal) ± S.E. (dose 30 mg/kg i.v.) [%]	% Bladder Volume Capacity (vs basal) ± S.E. (dose 60 mg/kg i.v.) [%]	% Bladder Volume Capacity (vs basal) ± S.E. (dose 100 mg/kg i.v.) [%]	% Bladder Volume Capacity (vs basal) ± S.E. (dose 300 mg/kg i.v.) [%]	ED60 (CL 95%) of recovery of Bladder Volume Capacity to basal value	% Bladder Volume Capacity (vs basal) ± S.E. (dose 0.3 mg/kg i.v.) [%]	% Bladder Volume Capacity (vs basal) ± S.E. (dose 1.0 mg/kg i.v.) [%]	% Bladder Volume Capacity (vs basal) ± S.E. (dose 3 mg/kg i.v.) [%]	% Bladder Volume Capacity (vs basal) ± S.E. (dose 10 mg/kg i.v.) [%]	micturition pressure (MP) (after increase of MP induced by acetic acid infusion, data not shown)	% Bladder Volume Capacity (vs basal) ± S.E. (dose 0.1 mg/kg i.v.) [%]	% Bladder Volume Capacity (vs basal) ± S.E. (dose 3 mg/kg i.v., 3 mg/kg) [%]
NCC1(CC(=O)O)CCCCC1 [Gabapentin]	27 ± 4	51 ± 15	55 ± 9	82 ± 12	112 (75-149)							
CC1=C(CC(=O)O)c2cc(F)ccc2/C1=C\c1ccc([S+](C)[O-])cc1 (stereo not shown) [Sulindac, sulindac]	54 ± 8				>30	27 ± 5	39 ± 11	34 ± 8	38 ± 4			
O=C(O)Cc1ccccc1Nc1c(Cl)cccc1Cl [Diclofenac, diclofenac]					0.85 (0.80-0.90)	41 ± 10	63 ± 13	82 ± 15				
CC(C)C[C@H](CN)CC(=O)O [Pregabalin, pregabalin]	35 ± 6		52 ± 8		300.5 (n.c.-n.c.)				31 ± 6	recovered to basal values		
CS(=O)(=O)Nc1ccc([N+](=O)[O-])cc1Oc1ccccc1 [Nimesulide]					>>10	38 ± 10	36 ± 12	37 ± 7	47 ± 15			
CC(C(=O)O)c1ccc(-c2ccccc2)c(F)c1 (stereo not shown) [Flurbiprofen, flurbiprofen]					2.34 (nc-4.77)	42 ± 6	49 ± 9		73 ± 12		43 ± 11	62 ± 10
